Consider 1 compound from patent publication US9060529B2, “Method for treatment of lacto-N-biose-containing solution” (Morinaga Milk Industry Co., Ltd., priority 2010, dated 2015).

SMILES strings stand for the structures.

Common to all, as to format: physicochemical
Data set [1] can be described thus: Examples 1-3: TLC analysis of heated liquid preparations containing LNB. How it is done:
(§1) Each of the heated samples was cooled to 15° C., and 1 μL was then spotted onto a silica gel thin layer chromatography (TLC) plate. The plate was developed using an 80% acetonitrile solvent, and was then immersed in a 5% sulfuric acid solution and colorized by heating in an oven. The existence or absence of decomposed or denatured products (N-acetylglucosamine dehydrate and galactose) and the amount of those decomposed or denatured products were evaluated visually to determine whether or not decomposition had occurred, and if so, the extent of that decomposition.
100 g of the LNB powder prepared in the above Production Example 1 was dissolved in 9.9 kg of purified water, and 0.1 M hydrochloric acid was added to the solution to adjust the pH to 4.5. The resulting aqueous solution was preheated for 3 minutes at 70° C. using a UHT sterilizer (manufactured by Morinaga Engineering Co., Ltd.), subsequently sterilized at 130° C. for 2 seconds, and then cooled to 15° C., yielding 10 kg of a liquid preparation containing LNB.
100 g of the LNB powder prepared in the above Production Example 1 was added to 9.9 kg of a commercially available orange juice (manufactured by Morinaga Milk Industry Co., Ltd.), and the resulting mixture was heated at 80° C. for 15 minutes and then cooled to 15° C. 100 mL aliquots of the juice were used to fill glass bottles, which were then sealed, yielding 100 bottles of orange juice containing LNB.
100 g of the LNB powder prepared in the above Production Example 1 was dissolved in 9.9 kg of purified water, and 0.1 M citric acid was added to the solution to adjust the pH to 5.0. The resulting aqueous solution was heated at 90° C. for 30 minutes, and then cooled to 15° C., yielding 10 kg of a liquid preparation containing LNB.

Data set [2] can be described thus: Test Example 1: effect of pH on stability of LNB upon heating (2% LNB in buffer, TLC of decomposed products). Conditions: 90° C. for 60 minutes. How it is done:
Samples of the LNB powder prepared in the above Production Example 1 were dissolved at a concentration of 2% (by mass, this also applies to all subsequent concentration values) in a 0.1 M citrate buffer solution (pH: 3.0 to 6.0), a 0.1 M phosphate buffer solution (pH: 6.0 to 8.0) or a 0.1 M glycine buffer solution (pH: 8.5 to 10.5), thus preparing samples (liquid compositions containing LNB) 1 to 16 having pH values at intervals of 0.5 across the entire pH range mentioned above.
A 5 mL sample of each of the prepared samples 1 to 16 was dispensed into a test tube and heated at 90° C. for 60 minutes.
as §1

The nature of data set [3]: Test Example 2: effect of heating temperature and time on stability of LNB in neutral liquid composition (TLC). As to conditions: pH 7.0; 90° C. for 0-60 minutes or 65-88° C. for 60 minutes. How it is done:
The LNB powder prepared in the above Production Example 1 was dissolved at a concentration of 2% in a 0.1 M phosphate buffer of pH 7.0 to prepare a sample (liquid composition containing LNB).
5 mL samples of the prepared sample were dispensed into test tubes, which were heated at 90° C. for 0, 10, 20, 30, 40, 50 or 60 minutes, or heated at 65, 67, 70, 75, 80, 85 or 88° C. for 60 minutes.
Each of the heated samples was cooled to 15° C., and the same method as that described for Test Example 1 was used to determine whether or not decomposition had occurred, and if so, the extent of that decomposition.

In the case of `CC(=O)N[C@H]1C(O)O[C@H](CO)[C@@H](O)[C@@H]1O[C@@H]1O[C@H](CO)[C@H](O)[C@H](O)[C@H]1O` (stereo partly drawn) [LNB, Lacto-N-biose], the “decomposition of LNB (TLC)” value is reported as “had not decomposed” in data set [1] (Example 1: aqueous solution pH 4.5, 70° C. for 3 minutes, then 130° C. for 2 seconds); “had not decomposed” in data set [1] (Example 2: orange juice pH 4.51, 80° C. for 15 minutes); “had not decomposed” in data set [1] (Example 3: aqueous solution pH 5.0 (citric acid), 90° C. for 30 minutes). Moreover, the “stability of the LNB upon heating (decomposition by TLC)” value in data set [2] (pH 5.5 or less, particularly 5.0 or less) is “stable and underwent almost no decomposition”; in data set [2] (pH 6.0 or higher, particularly 7.0 or higher), “significant amounts of decomposed or denatured products were observed”. Moreover, in data set [3], the “stability of LNB (decomposition by TLC)” value is recorded as “decomposed or denatured products were detected under all of the different heat treatment conditions”.
